{"source": "patent US20250289786A1", "about": "“CHLORINATED MONOCARBONYL CURCUMIN COMPOUNDS, PREPARATION METHOD, AND APPLICATION” (Southwest Medical University, priority 2024, published 2025)", "key": {"[1]": {"assay": "Solubility detection of CAK01-CAK07", "assay_type": "physicochemical", "text": "The chlorinated monocarbonyl curcumin compounds CAK01-CAK07 prepared under the conditions of Example 1 were taken for nuclear magnetic resonance, mass spectrometry, solubility, and melting point detection."}, "[2]": {"test_system": "PC12 cells", "assay": "MTT toxicity (safety evaluation) on PC12 nerve cells", "assay_type": "cell-based", "method": "The toxicity of each drug to PC12 cells was determined by MTT assay. The principle of the MTT colorimetric method: there is succinate dehydrogenase in the mitochondria of living cells, which can make exogenous MTT become blue-purple crystal formazan insoluble in water, this phenomenon cannot be observed in dead cells. The blue-purple crystal formazan can be dissolved by DMSO, and the absorbance value is measured by a microplate reader at a wavelength of 490 nm, which in turn reflects the number of living cells. […] The operation method is as follows:\nThe cells were resuscitated with DMEM high glucose medium containing 10% fetal bovine serum and cultured in a 5% CO2 cell incubator at 37° C., when the cells grew to the logarithmic growth phase, they were inoculated into a 96-well plate and cultured for 24 hours, each well was added with 100 μL of each compound solution at the corresponding gradient concentration (60, 30, 15, 7.5, 3.75 μM), after incubation in the incubator for 24 h or 48 h, 20 μL of MTT was added to continue incubation for 4 h, the supernatant was discarded and 150 μL of DMSO was added to dissolve the blue-purple crystals, after shaking for 10 min, the cell viability was detected by a microplate reader, and classified according to the cytotoxicity standard. The relevant calculation formula is as follows: […]"}, "[3]": {"test_system": "PC12 cells", "assay": "Inhibition of H2O2-induced oxidative damage in PC12 cells", "assay_type": "cell-based, rat", "procedure": "After 24 hours of incubation in the incubator, the relative proliferation rates of the cells were calculated according to the method under Section 2.1."}, "[4]": {"test_system": "PC12 cells", "assay": "Inhibition of corticosterone (CORT)-induced PC12 cell damage", "assay_type": "cell-based, rat", "settings": "24 h"}, "[5]": {"test_system": "BV2 cells", "assay": "ROS detection (DCFH-DA) in LPS-induced BV2 cells", "assay_type": "cell-based", "settings": "10, 5 and 1 μM with LPS, in words", "text": "When the body is in a long-term stress and stress state, a large number of oxidizing substances and inflammatory factors accumulate in the body, causing depression and inducing depression-like symptoms. LPS is a pro-inflammatory substance, which can induce the increase of inflammatory factors, the accumulation of reactive oxygen species ROS and the release of NO in BV2 cells. The anti-inflammatory and antioxidant effects of drugs can be evaluated by establishing an LPS stress model.\nROS detection: The fluorescent dye probe DCFH-DA can freely pass through the BV2 cell membrane, and the dye entering the cell is enzymatically hydrolyzed to DCFH, at this time, it can no longer pass through the cell membrane. The intracellular ROS can oxidize DCFH to DCF with fluorescence, which can reflect the ROS content by detecting the fluorescence intensity of DCF. The specific operation is as follows: when BV2 cells grew to the logarithmic growth phase, they were inoculated in a 6-well plate at 1×10^6 cells/well and cultured for 24 h. […] After the cells were co-cultured with compound CAK06 for 12 h, the cells were stained according to the instructions of the ROS detection kit, and photographed and analyzed by an inverted fluorescence microscope."}, "[6]": {"test_system": "CUMS depression model mice", "assay": "Sucrose preference test in CUMS depression model mice", "assay_type": "in vivo, C57BL/6J mice", "text": "(§1) After one week of adaptive feeding, the newly purchased mice were divided into a blank group and CUMS model group. The mice in the blank group were not subjected to behavioral intervention and were fed normally. Mice in the model group were given 1-2 unpredictable behavioral stimuli every day. […] When the same stimulation is continuous, the stimulation method is changed to ensure that the same stimulation is not continuous, and the model construction period is 42 days."}, "[7]": {"test_system": "CUMS depression model mice", "assay": "Open field test in CUMS depression model mice", "assay_type": "in vivo, C57BL/6J mice", "settings": "28 days, model 327.22±161.39 cm", "text": "as §1"}, "[8]": {"test_system": "Nrf2, HO-1, BDNF, and TrkB in the hippocampus", "assay": "Western blot of hippocampal proteins in CUMS depression model mice", "assay_type": "in vivo", "settings": "low dose, in words"}, "[9]": {"test_system": "liver, heart, spleen, lung, and kidney tissues", "assay": "HE staining safety evaluation of mouse tissues", "assay_type": "in vivo", "settings": "kidney of mice, in words"}}, "data": [{"compound": "COc1cc(/C=C2\\CNC/C(=C\\c3cc(Cl)c(O)c(OC)c3)C2=O)cc(Cl)c1O", "note": "[CAK06, 3,5-bis ((E)-3-chloro-4-hydroxy-5-methoxybenzylidene) piperidin-4-one]", "values": [{"measurement": "solubility", "setting": "[1]", "value": 171.77, "unit": "mg/100 g"}, {"measurement": "cytotoxicity to PC12 cells", "setting": "[2]; 3.75-60 μM, 24 h and 48 h, in words", "value": "no significant cytotoxicity"}, {"measurement": "Rank (cytotoxicity standard) 24 h", "setting": "[2]; PC12, 3.75 μM", "value": 0}, {"measurement": "Relative growth rate (%) 24 h", "setting": "[2]; PC12, 3.75 μM", "value": "98.50 ± 3.77", "unit": "%"}, {"measurement": "Rank (cytotoxicity standard) 48 h", "setting": "[2]; PC12, 3.75 μM", "value": 0}, {"measurement": "Relative growth rate (%) 48 h", "setting": "[2]; PC12, 3.75 μM", "value": "100.05 ± 0.75", "unit": "%"}, {"measurement": "Rank (cytotoxicity standard) 24 h", "setting": "[2]; PC12, 7.5 μM", "value": 0}, {"measurement": "Relative growth rate (%) 24 h", "setting": "[2]; PC12, 7.5 μM", "value": "100.42 ± 2.85", "unit": "%"}, {"measurement": "Rank (cytotoxicity standard) 48 h", "setting": "[2]; PC12, 7.5 μM", "value": 1}, {"measurement": "Relative growth rate (%) 48 h", "setting": "[2]; PC12, 7.5 μM", "value": "92.97 ± 2.54", "unit": "%"}, {"measurement": "Rank (cytotoxicity standard) 24 h", "setting": "[2]; PC12, 15 μM", "value": 1}, {"measurement": "Relative growth rate (%) 24 h", "setting": "[2]; PC12, 15 μM", "value": "98.55 ± 4.12", "unit": "%"}, {"measurement": "Rank (cytotoxicity standard) 48 h", "setting": "[2]; PC12, 15 μM", "value": 1}, {"measurement": "Relative growth rate (%) 48 h", "setting": "[2]; PC12, 15 μM", "value": "88.82 ± 0.28", "unit": "%"}, {"measurement": "Rank (cytotoxicity standard) 24 h", "setting": "[2]; PC12, 30 μM", "value": 1}, {"measurement": "Relative growth rate (%) 24 h", "setting": "[2]; PC12, 30 μM", "value": "94.56 ± 2.82", "unit": "%"}, {"measurement": "Rank (cytotoxicity standard) 48 h", "setting": "[2]; PC12, 30 μM", "value": 1}, {"measurement": "Relative growth rate (%) 48 h", "setting": "[2]; PC12, 30 μM", "value": "93.60 ± 4.14", "unit": "%"}, {"measurement": "Rank (cytotoxicity standard) 24 h", "setting": "[2]; PC12, 60 μM", "value": 0}, {"measurement": "Relative growth rate (%) 24 h", "setting": "[2]; PC12, 60 μM", "value": "114.78 ± 1.81", "unit": "%"}, {"measurement": "Rank (cytotoxicity standard) 48 h", "setting": "[2]; PC12, 60 μM", "value": 0}, {"measurement": "Relative growth rate (%) 48 h", "setting": "[2]; PC12, 60 μM", "value": "109.26 ± 4.07", "unit": "%"}, {"measurement": "cell proliferation rate", "setting": "[3]; 60 μM drug with 585.8 μM H2O2, 24 h", "value": "73.91±0.69", "unit": "%"}, {"measurement": "effect on survival of H2O2-damaged PC12 cells", "setting": "[3]; 3.75-60 μM drug, 24 h, in words", "value": "time-dependent and concentration-dependent cell protection"}, {"measurement": "relative cell proliferation rate", "setting": "[4]; 60 μM drug with 514.6 μM CORT", "value": "66.95±0.97", "unit": "%"}, {"measurement": "effect on viability of CORT-damaged PC12 cells", "setting": "[4]; 3.75-60 μM drug with 514.6 μM CORT, in words", "value": "time-dependent and concentration-dependent cell protection"}, {"measurement": "ROS fluorescence intensity", "setting": "[5]", "value": "decreased in a concentration-dependent manner"}, {"measurement": "sucrose preference rate", "setting": "[6]; 10 mg/kg oral once a day, 14th day, in words", "value": "failed to significantly increase the sucrose preference rate"}, {"measurement": "sucrose preference rate", "setting": "[6]; 10 mg/kg oral once a day, 28 days, model 61.36±2.18%", "value": "70.62±2.33", "unit": "%"}, {"measurement": "sucrose preference rate", "setting": "[6]; 20 mg/kg oral once a day, 14th day, in words", "value": "significant increase"}, {"measurement": "sucrose preference rate", "setting": "[6]; 20 mg/kg oral once a day, 28 days, model 61.36±2.18%", "value": "77.42±2.77", "unit": "%"}, {"measurement": "overall activity distance in the open field test", "setting": "[7]; 10 mg/kg oral once a day", "value": "868.90±280.97", "unit": "cm"}, {"measurement": "overall activity distance in the open field test", "setting": "[7]; 20 mg/kg oral once a day", "value": "1336.66±264.87", "unit": "cm"}, {"measurement": "expression of antioxidant-related proteins Nrf2 and HO-1", "setting": "[8]", "value": "better expression than the Flu group"}, {"measurement": "HE staining pathology of tissues", "setting": "[9]", "value": "basically normal"}]}]}
